Reference: publication PMC10959927, “Platinum iodido drugs show potential anti-tumor activity, affecting cancer cell metabolism and inducing ROS and senescence in gastrointestinal cancer cells” (Communications Biology, 2024)
Where “and” joins values, the source holds several entries; their conditions need not be identical. Equal values may be shown once.

Key:
Type in all cases: cell-based, human
[1] = system: PANC1 cells; assay: Immunofluorescence of γ-H2AX and 53BP1 foci; settings: for foci/cell, share of cells in class (Suma 100) / foci/cell, number of cells in class: PANC1, Fig. 3B; for foci/cell, number of cells in class: cell count
Experimental: Cells (7 × 10^4) were seeded on 20 mm coverslips. […] Coverslips were incubated for 1 h with the primary antibody (Cell Signaling: H2AX Ser139 (#2595) and 53BP1 (#4937)) at room temperature, followed by a 1 h incubation with the appropriate secondary antibody. DNA was stained with DAPI. Fluorescence microscopy was performed using a NIKON Eclipse 90i. The image analysis was performed using the software program Nikon NIS-Elements and Image J.

[2] = system: AGS cells; assay: SA-β-Gal activity, CellEvent Senescence Green flow cytometry;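 also: IC50 concentration of each compound relative to untreated control set as 1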; settings: Fig. 3A, replicate values
Experimental: (§1) SA-β-Gal activity was measured following two different approaches. (i) AGS, MKN45 and PANC1 cells (5 × 10^4) were seeded in 24-multiwell dishes and incubated overnight. […] For flow cytometry cell senescence detection, cells were tripsinized, fixed for 15 min with PFA 4% and stained with the CellEvent Senescense Green Flow Cytometry Assay Kit (C10840, Invitrogen) according to manufacturer’s instructions. CellEvent Senescense Green Probe was used at a 1:500 dilution and fluorescence was detected using the filter (Ex488nm/Em530/30) BL1 with a 4-laser Attune NxT Acoustic Cytometer (Thermo Fisher Scientific). […] After 3 h, the treatments were removed, new supplemented medium was added, and cells were incubated for an additional 24 h. Finally, SA-β-Gal staining was performed using the Senescence Cells Histochemical Staining Kit (CS0030-1KT) according to the manufacturer’s instructions.

[3] = system: MKN45 cells; assay: as above; settings: Fig. 3A, replicate values
Experimental: as §1

[4] = system: PANC1 cells; assay: as above; settings: Fig. 3A, replicate values
Experimental: as §1

[5] = system: AGS cells; assay: RT-qPCR gene expression (CDKN1A, IL6, MMP1, MAP2K3, SOD1, SOD2, CAT, MKI67, TNFRSF10D)
Experimental: (§2) Total cellular RNA was extracted using Tri-Reagent (Life Technologies), following the manufacturer’s instructions. One μg of total RNA was primed with random primers and cDNA synthesized with an M-MLV reverse transcriptase following the manufacturer’s instructions (Promega). Target genes were amplified using a SYBR Green polymerase chain reaction assay, working with the specific primer sets listed in Table 4.
(§3) Thermal cycling of the qPCR reaction was initiated with a denaturation step at 95 °C for 10 min. The process consisted of 40 cycles (denaturation at 95 °C for 15 sec, annealing at 60 °C for 30 sec, and elongation at 75 °C for 30 sec). PCR amplifications were carried out in a StepOne Real‐time PCR System (Applied Biosystems, 4376357). Relative mRNA levels were calculated by the delta-Ct method (2-ΔΔCt), where each 1-Ct difference equals a two-fold change in transcript abundance, using GAPDH as an endogenous gene reference. ΔΔCT represents the difference between the mean ΔCT value of the cells tested and the mean ΔCT value of the calibrator, both calculated for the same PCR run.

[6] = system: MKN45 cells; assay: as above
Experimental: as §2, §3

[7] = system: PANC1 cells; assay: as above
Experimental: as §2, §3

[8] = MKN45, Fig. 3C, replicate values
[9] = PANC1, Fig. 3C, replicate values
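For Fold change % Senescence in this document: IC50 concentration of each compound relative to untreated control set as 1.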

CC(C)[NH][Pt@SP3]([I])([I])[NH]C(C)C [I5, trans-[PtI2(isopropylamine)2]]
foci/cell: share of cells with 31-45 foci (Suma 100) ([1]; PANC1, Fig. S4B, share of N): 9.091 | foci/cell: share of cells with 46-60 foci (Suma 100) ([1]; PANC1, Fig. S4B, share of N): 3.0303 | foci/cell: share of cells with <15 foci (Suma 100) ([1]; PANC1, Fig. S4B, share of N): 54.5455 | foci/cell: share of cells with >61 foci (Suma 100) ([1]; PANC1, Fig. S4B, share of N): 0 | foci/cell, share of cells in class (Suma 100) ([1]; class 16-30 foci/cell): 26.9231 | foci/cell, number of cells in class ([1]; class 16-30 foci/cell): 7 | foci/cell, share of cells in class (Suma 100) ([1]; class 31-45 foci/cell): 26.9231 | foci/cell, number of cells in class ([1]; class 31-45 foci/cell): 7 | foci/cell, share of cells in class (Suma 100) ([1]; class 46-60 foci/cell): 15.3846 | foci/cell, number of cells in class ([1]; class 46-60 foci/cell): 4 | foci/cell, share of cells in class (Suma 100) ([1]; class <15 foci/cell): 3.846 | foci/cell, number of cells in class ([1]; class <15 foci/cell): 1 | foci/cell, share of cells in class (Suma 100) ([1]; class >61 foci/cell): 26.9231 | foci/cell, number of cells in class ([1]; class >61 foci/cell): 7 | Fold change % Senescence [2]: 2.4 fold change and 2.38 fold change and 2.1 fold change | Fold change % Senescence [3]: 6.84 fold change and 6.77 fold change and 7.76 fold change | Fold change % Senescence [4]: 2.58 fold change and 1.93 fold change and 2.21 fold change | CDKN1A, Fold change vs GAPDH ([5]; Fig. 3C, replicate values): 3.618 fold change and 2.316 fold change and 5.653 fold change | IL-6, Fold change vs GAPDH ([5]; Fig. 3C, replicate values): 2.065 fold change and 3.223 fold change and 3.287 fold change | MMP-1, Fold change vs GAPDH ([5]; Fig. 3C, replicate values): 226.834 fold change and 185.054 fold change and 278.046 fold change | Fold change MAP2K3 vs GAPDH ([5]; Fig. 4B, replicate values): 4.889 fold change and 4.056 fold change and 5.8931 fold change | MKI67 Fold change vs GAPDH ([5]; Fig. S4C): 0.1267 fold change and 0.1149 fold change and 0.1396 fold change | TNFRSF10D Fold change vs GAPDH ([5]; Fig. S4C): 23.1799 fold change and 20.8545 fold change and 25.7647 fold change | CAT (Fold change vs GAPDH) ([5]; mRNA vs Control = 1): 0.8688 Fold change and 0.7906 Fold change and 0.9547 Fold change | SOD1 (Fold change vs GAPDH) ([5]; mRNA vs Control = 1): 1.921 Fold change and 1.645 Fold change and 2.244 Fold change | SOD2 (Fold change vs GAPDH) ([5]; mRNA vs Control = 1): 1.44 Fold change and 1.254 Fold change and 1.654 Fold change | MKI67 Fold change vs GAPDH ([6]; MKN45, Fig. S4C): 0.1536 fold change and 0.123 fold change and 0.1918 fold change | TNFRSF10D Fold change vs GAPDH ([6]; MKN45, Fig. S4C): 1.273 fold change and 0.9869 fold change and 1.641 fold change | CAT (Fold change vs GAPDH) ([6]; MKN45, mRNA vs Control = 1): 0.5641 Fold change and 0.4321 Fold change and 0.7364 Fold change | SOD1 (Fold change vs GAPDH) ([6]; MKN45, mRNA vs Control = 1): 2.6 Fold change and 2.293 Fold change and 2.9486 Fold change | SOD2 (Fold change vs GAPDH) ([6]; MKN45, mRNA vs Control = 1): 1.053 Fold change and 0.9005 Fold change and 1.465 Fold change | CDKN1A, Fold change vs GAPDH [6, 8]: 3.253 fold change and 2.596 fold change and 4.076 fold change | IL-6, Fold change vs GAPDH [6, 8]: 0.4948 fold change and 2.435 fold change and 1.266 fold change | MMP-1, Fold change vs GAPDH [6, 8]: 7.796 fold change and 5.223 fold change and 11.6341 fold change | Fold change MAP2K3 vs GAPDH ([6]; MKN45, Fig. 4B, replicate values): 1.986 fold change and 1.696 fold change and 2.324 fold change | MKI67 Fold change vs GAPDH ([7]; PANC1, Fig. S4C): 1.955 fold change and 1.4208 fold change and 2.69 fold change | TNFRSF10D Fold change vs GAPDH ([7]; PANC1, Fig. S4C): 5.496 fold change and 3.924 fold change and 7.699 fold change | CAT (Fold change vs GAPDH) ([7]; PANC1, mRNA vs Control = 1): 1.529 Fold change and 1.325 Fold change and 1.766 Fold change | SOD1 (Fold change vs GAPDH) ([7]; PANC1, mRNA vs Control = 1): 1.806 Fold change and 1.686 Fold change and 1.679 Fold change | SOD2 (Fold change vs GAPDH) ([7]; PANC1, mRNA vs Control = 1): 0.6164 Fold change and 0.5428 Fold change and 0.7 Fold change | CDKN1A, Fold change vs GAPDH [7, 9]: 4.551 fold change and 3.906 fold change and 5.303 fold change | IL-6, Fold change vs GAPDH [7, 9]: 7.572 fold change and 6.429 fold change and 8.917 fold change | MMP-1, Fold change vs GAPDH [7, 9]: 12.6345 fold change and 9.391 fold change and 8.708 fold change | Fold change MAP2K3 vs GAPDH ([7]; PANC1, Fig. 4B, replicate values): 3.332 fold change and 2.993 fold change and 3.71 fold change
